# Assays:
# [1] = biological target: T1, HER2 kinase (intracellular domain of HER2) (Homo sapiens, UniProt P04626); assay: Measurement of inhibition activity of HER2 kinase; type: biochemical; conditions: test compound 1.0 μM, poly-Glu:Tyr(4:1) substrate, [γ-32P]ATP, 25° C. 10 minutes, read-out: Inhibition rate (%) in 1.0 μM
# T1 construct: FLAG (N); made in house; host or cells: SF-21 insect cells infected with recombinant baculovirus BAC-HER2
# Method: Cloning of Human HER2 Gene was performed with RT-PCR templating total RNA prepared from MCF 7 cell. To attach Flag tag in N-terminal of HER2, a primer used in RT-PCR was manufactured by adding flag peptide coding sequence and restricted enzyme recognition sequence to the base sequence (2176-3918 in Genbank Accession M11730) which codes a part of intracellular domain of the protein using an information of base sequence of HER2 Gene (Genbank Accession M11730). Base sequence of the primer was shown as below.
# (§1) RT reaction was performed using a SuperScript First-Strand Synthesis system for RT-PCR (Invitrogen), and PCR reaction was performed using a KOD-plus kit (TOYOBO). The obtained PCR product was subjected to electrophoresis on agarose gel (1%), and digested with Sal I and Sph I after collecting a DNA fragment amplified by PCR from the gel. The DNA treated with restricted enzymes was subjected to electrophoresis on agarose gel (1%), the obtained DNA fragment was collected, and ligated to a plasmid pFASTBAC1 (Invitrogen) digested with restricted enzymes Sal I and Sph I, resulting that expression plasmid pFB-HER2 was manufactured. Base sequence of inserted fragment was confirmed. As a result, the base sequence of inserted fragment was corresponded with base sequence of the intracellular domain of the HER2 (pp. 2176-3918 in Genbank Accession M11730). Further, a recombinant baculovirus BAC-HER2 was prepared using BAC-TO-BAC Baculovirus Expression System (Invitrogen).
# A SF-21 cell was plated with 1×10^6 cells/ml in a Sf-900II SFM medium (Invitrogen) containing 10% of fetal bovine serum (Trace), 50 mg/L of Gentamicin (Invitrogen) and 0.1% of Pluronic F-68 (Invitrogen), and cultured with shaking at 27° C. at 100 rpm using a 2 L meyer. After culturing for 24 hours, 13.4 ml of a recombinant baculovirus BAC-HER2 was added thereto, and further cultured for 3 days. The cultured solution was centrifuged at 2,000 rpm for 5 minutes, and a virus-infected cell was obtained. The cell was washed with phosphate buffered saline (Invitrogen), centrifuged under the same condition, and preserved at −80° C. The freezing preserved cell was melted on ice, suspended with 30 ml of a buffer A (50 mM of tris-buffer containing 20% of glycerol and 0.15M of NaCl (pH 7.4)) to which was added Complete Protease Inhibitor (Behringer), and crushed at 20,000 rpm for 30 seconds three times using Polytron homogenizer (Kinematica). The crushed solution was clarified by centrifugation at 40,000 rpm for 30 minutes, and filtered using a 45 μm filter. The filtrate was passed through a column filled with Anti-FLAG M2 Affinity Gel (Sigma Corp.) in a flow rate of about 0.5 mL/min. The column was washed with a buffer A, and eluted with a buffer A containing 100 μg/mL of FLAG peptide. The eluted solution was concentrated by Vivaspin 20 of MWCO (molecular weight of cut-off) 30K (Vivascience). This concentrated solution was gel-filtrated and purified by a Hi Load Superdex 200 pg 16/60 (Amersham Biosciences) equilibrated with the buffer A. The fraction containing the intracellular domain of HER2 was collected, and glycerol was added thereto to be a 50% of terminal concentration, and then freezing preserved at −80° C.
# The test compound dissolved in dimethylsulfoxide (DMSO) was diluted with buffer for measuring the kinase reaction (50 mM of Tris-HCl (pH 7.5), 5 mM of MgCl2, 5 mM MnCl2, 2 mM of dithiothreitol, 0.01% of Tween-20). […]
# [2] = biological target: T2, EGF receptor kinase (intracellular domain of EGF receptor) (Homo sapiens, UniProt P00533); assay: Measurement of inhibition activity of EGF receptor kinase; type: biochemical; conditions: EGFR kinase; test compound 1.0 μM; biotinyl-poly-Glu:Tyr (4:1), α-screen assay, 25° C. 10 minutes; read-out: Inhibition rate (%) in 1.0 μM
# T2 construct: FLAG (N); made in house; host or cells: SF-21 insect cells infected with recombinant baculovirus BAC-EGFR
# Method: Cloning of Human EGF Receptor Gene was performed with RT-PCR templating total RNA prepared from A431 cell. To attach Flag tag in N-terminal of EGF, a primer used in RT-PCR was manufactured by adding flag peptide coding sequence and restricted enzyme recognition sequence to the base sequence (2182-3810 in Genbank Accession XM—167493) which codes a part of intracellular domain of the protein using an information of base sequence of EGF receptor Gene (Genbank Accession XM—167493). The Base sequence of the primer was shown as below.
# as §1, with “and” for “resulting that”, “EGFR” for “the HER2”, “2182-3810” for “2176-3918”, “XM—167493).” for “M11730).”, “BAC-EGFR” for “BAC-HER2”
# A SF-21 cell was plated with 1×10^6 cells/ml in a Sf-900II SFM medium (Invitrogen) containing 10% of a fetal bovine serum (Trace), 50 mg/L of Gentamicin (Invitrogen) and 0.1% of Pluronic F-68 (Invitrogen), and cultured with shaking at 27° C. at 100 rpm using a 2 L meyer. After culturing for 24 hours, 13.4 mL of a recombinant baculovirus EGFR was added thereto, and further cultured for 3 days. The cultured solution was centrifuged in 2,000 rpm for 5 minutes, and a virus-infected cell was obtained. The cell was washed with phosphate buffered saline (Invitrogen), centrifuged under the same condition, and then preserved at −80° C. The freezing preserved cell was melted on ice, suspended with 30 mL of a buffer A (50 mM of tris-buffer containing 20% of glycerol and 0.15M of NaCl (pH 7.4)) to which was added Complete Protease Inhibitor (Behringer), and crushed at 20,000 rpm for 30 seconds three times using Polytron homogenizer (Kinematica). The crushed solution was clarified by centrifugation at 40,000 rpm for 30 minutes, and filtered using a 45 μm filter. The filtrate was passed through a column which is filled with Anti-FLAG M2 Affinity Gel (Sigma Corp.) in a flow rate of about 0.5 mL/min. The column was washed with a buffer A, and eluted with a buffer containing 100 μg/ml of FLAG peptide. […]
# T1 sequence (P04626 676-1255 limits assumed): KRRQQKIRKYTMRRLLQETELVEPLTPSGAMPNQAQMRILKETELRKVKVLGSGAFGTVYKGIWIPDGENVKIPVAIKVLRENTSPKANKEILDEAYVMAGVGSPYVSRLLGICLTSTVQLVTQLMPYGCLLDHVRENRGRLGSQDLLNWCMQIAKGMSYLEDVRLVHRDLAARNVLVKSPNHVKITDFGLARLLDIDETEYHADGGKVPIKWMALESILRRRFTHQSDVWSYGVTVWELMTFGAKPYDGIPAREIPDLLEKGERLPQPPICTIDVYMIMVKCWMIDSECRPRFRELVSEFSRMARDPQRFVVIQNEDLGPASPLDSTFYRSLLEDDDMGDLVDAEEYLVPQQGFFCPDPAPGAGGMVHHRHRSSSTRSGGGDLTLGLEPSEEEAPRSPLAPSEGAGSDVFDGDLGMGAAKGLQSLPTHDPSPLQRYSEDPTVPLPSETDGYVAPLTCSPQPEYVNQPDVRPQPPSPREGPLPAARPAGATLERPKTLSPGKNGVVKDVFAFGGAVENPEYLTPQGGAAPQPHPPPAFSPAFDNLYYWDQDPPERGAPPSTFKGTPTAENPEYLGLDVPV
# T2 sequence (P00533 669-1210 limits assumed): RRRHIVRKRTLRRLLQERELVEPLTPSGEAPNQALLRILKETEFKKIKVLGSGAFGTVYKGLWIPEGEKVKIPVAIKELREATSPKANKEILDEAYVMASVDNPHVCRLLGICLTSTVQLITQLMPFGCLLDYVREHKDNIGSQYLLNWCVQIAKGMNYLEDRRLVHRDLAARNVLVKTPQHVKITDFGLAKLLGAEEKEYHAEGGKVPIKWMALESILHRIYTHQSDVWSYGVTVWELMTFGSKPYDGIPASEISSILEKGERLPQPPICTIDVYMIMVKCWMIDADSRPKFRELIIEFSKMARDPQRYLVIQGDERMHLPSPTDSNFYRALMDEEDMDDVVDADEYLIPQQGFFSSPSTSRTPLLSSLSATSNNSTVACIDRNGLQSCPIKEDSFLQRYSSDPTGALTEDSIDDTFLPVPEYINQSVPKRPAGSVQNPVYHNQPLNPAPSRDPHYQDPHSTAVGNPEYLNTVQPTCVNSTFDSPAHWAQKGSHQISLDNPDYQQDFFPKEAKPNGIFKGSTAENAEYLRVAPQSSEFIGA
inhibition at 1 µM [1] [%],inhibition at 1 µM [2] [%],Compound
92,–,"OCCNCc1ccc(-c2nc3c(Nc4ccc(OCc5cccc(F)c5)c(Cl)c4)ncnc3s2)cc1 [Example 26, 2-({4-[7-({3-chloro-4-[(3-fluorobenzyl)oxy]phenyl}amino)[1,3]thiazolo[5,4-d]pyrimidin-2-yl]benzyl}amino)ethanol]"
89,–,"COCCNCCc1ccc(-c2nc3c(Nc4ccc(Oc5ccc(C)nc5)c(C)c4)ncnc3s2)cc1 [Example 41, 2-(4-{2-[(2-methoxyethyl)amino]ethyl}phenyl)-N-{3-methyl-4-[(6-methylpyridin-3-yl)oxy]phenyl}[1,3]thiazolo[5,4-d]pyrimidin-7-amine]"
–,91,"COCCNC(=O)c1nc2c(Nc3ccc(OCc4cccc(F)c4)c(Cl)c3)ncnc2s1 [Example 20, 7-({3-chloro-4-[(3-fluorobenzyl)oxy]phenyl}amino)-N-(2-methoxyethyl) [1,3]thiazolo[5,4-d]pyrimidine-2-carboxamide]"

# Second part, the molecule before the results:
Compound,inhibition at 1 µM [1] [%],inhibition at 1 µM [2] [%]
"COCCNCc1ccc(-c2nc3c(Nc4ccc(F)c(Cl)c4)ncnc3s2)cc1 [Example 39, N-(3-chloro-4-fluorophenyl)-2-(4-{[(2-methoxyethyl)amino]methyl}phenyl) [1,3]thiazolo[5,4-d]pyrimidin-7-amine]",96,–
"CC(=O)NCCCCCc1nc2c(Nc3ccc(OCc4cccc(F)c4)c(Cl)c3)ncnc2s1 [Example 46, N-{5-[7-({3-chloro-4-[(3-fluorobenzyl)oxy]phenyl}amino) [1,3]thiazolo[5,4-d]pyrimidin-2-yl]pentyl}acetamide]",–,81
"O=C(CO)NCc1ccc(-c2nc3c(Nc4ccc(OCc5ccsc5)c(Cl)c4)ncnc3s2)cc1 [Example 80, N-[4-(7-{[3-chloro-4-(3-thienylmethoxy)phenyl]amino}[1,3]thiazolo[5,-d]pyrimidin-2-yl)benzyl]-2-hydroxyacetamide]",87,–
"Fc1cccc(COc2ccc(Nc3ncnc4sc(C5CC5)nc34)cc2Cl)c1 [Example 52, N-{3-chloro-4-[(3-fluorobenzyl)oxy]phenyl}-2-cyclopropyl[1,3]thiazolo[5,4-d]pyrimidin-7-amine]",–,81
"CS(=O)(=O)CCNCCNC(=O)c1nc2c(Nc3ccc(OCc4cccc(F)c4)c(Cl)c3)ncnc2s1 [Example 25, 7-({3-chloro-4-[(3-fluorobenzyl)oxy]phenyl}amino)-N-(2-{[2-(methylsulfonyl)ethyl]amino}ethyl)[1,3]thiazolo[5,4-d]pyrimidine-2-carboxamide]",–,88
"OCCNCc1ccc(-c2nc3c(Nc4ccc(Oc5cccc(C(F)(F)F)c5)c(Cl)c4)ncnc3s2)cc1 [Example 58, 2-({4-[7-({3-chloro-4-[3-(trifluoromethyl)phenoxy]phenyl}amino)[1,3]thiazolo[5,4-d]pyrimidin-2-yl]benzyl}amino)ethanol]",90,–

# From patent US20080269238A1, “Thiazolopyrimidine Derivative” (TAKEDA PHARMACEUTICAL COMPANY LIMITED, priority 2004, published 2008)
